Where a SMILES comes first, the peptide text is derived from it.
Columns and labels:
[1] = tested on: PCNA positive cells in the subventricular zone (SVZ); experiment: Neuroblast proliferation, PCNA positive cells in subventricular zone; format: in vivo, rat; settings: 3 days
Experimental: To carry out these studies, tissues were fixed and embedded in paraffin and sections obtained using standard methods. Coronal sections (6 μm) containing the level of the hippocampus were cut and mounted on chrome-alum-coated slides for staining. The sections were deparaffinized in xylene, […] in a series of ethanol and incubated in 0.1 M phosphate buffered saline (PBS). Primary antibodies against glial fibrillary acidic protein (GFAP) and proliferating cell nuclear antigen (PCNA) were used to mark reactive glial cells and cells undergoing apoptosis and proliferation, respectively. For antigen unmasking (caspase-3 and PCNA staining), sections were heated in 10 mM sodium citrate buffer (pH 6.0) for 1 min at high power. All sections were pretreated with 1% H2O2 in 50% methanol for 30 min to quench the endogenous peroxidase activity. Then either 1.5% normal horse serum or 2.5% normal sheep serum in PBS was applied for 1 h at room temperature to block nonspecific background staining. […] The number of PCNA positive cells was counted in the subventricular zone and the GFAP positive cells was scored in the cerebral cortex. […] The number of PCNA positive cells was counted in the SVZ and the number of cells was then averaged as cells/mm depending on the length of ventricle wall used for counting (FIG. 19A). […]

MeCP2 deficient mice = tested on: MeCP2 deficient mice
Experimental: We treated hemizygous MeCP2(1lox) male mice with 20 mg/kg/day of G-2-MePE or saline, (0.01% BSA, n=15 per group in survival experiment and n=20 in the LTP experiment). The treatments were administered intraperitoneally from 4 weeks after birth. For the survival experiments the treatment was maintained through the course of the experiment. For the LTP experiment the mice were treated until week 9 when they were used for slice preparation.
MeCP2 deficient mutant mice develop RTT symptoms at about 4-6 weeks of age and die between 10-12 weeks (Chen et al., 2001. Nat Genet 27: 327-331). We compared the survival of the wild type controls and the MeCP2 deficient animals in vehicle- and G-2-MePE-treated groups. Survival was measured weekly from start of treatment (4 weeks) and used to produce Kaplan-Meier survival curves to show the proportion of mice that survived (y axis) at each weekly interval (x axis) (see FIG. 22).

[2] = tested on: hippocampal CA1 neurons of mecp2 null mutant mice; experiment: Dendritic arborization and spine analysis, Golgi staining (Example 9); format: in vivo, mouse
Experimental: We assess the effects of G-2-MePE treatment on dendrites. Transgenic mecp2 knockout mice (n=15 to 20) were administered G-2-MePE intraperitoneally at a dose of 20 mg/kg once daily. Following sacrifice dendritic spine density, spine length and aborization were examined after Golgi staining after nine weeks, as per the Table 1 below:
Dendritic length was assessed by distance from the soma of representative hippocampal CA1 neurons from 9 week old male mecp2 null mutant mice treated with either saline (3 neurons analysed from 3 separate mice, n=9) or G-2-MePE (20 mg/kg i.p. 1/day, from week 4; 3 neurons analysed from 3 separate mice, n=9).

fmr1 knockout mice = experiment: Contextual fear conditioning, fmr1 knockout mice; format: in vivo, mouse; settings: fmr1 KO; 100 mg/kg i.p. 28 days
Experimental: G-2-MePE was administered at the dose of 100 mg/kg i.p. in 0.1 ml saline, once daily for 28 days. Vehicle-treated animals were injected with 0.1 ml saline daily for 28 days. Thereafter, drug or vehicle treatments were stopped and animals were tested on successive days until all tests were completed. Finally, the animals were sacrificed for determining expression of pAkt and pERK
Contextual fear conditioning is the most basic of the conditioning (learning) procedures. It involves placing the animal in a novel environment (dark chamber), providing an aversive stimulus (a 1-sec electric shock at 0.2 mA to the paw), and then removing it. […] Freezing is a species-specific response to fear and is defined as absence of movement except for respiration.
The clinical manifestation of Fragile X Syndrome is mental retardation in which learning and memory may be profoundly impaired. We tested G-2-MePE and vehicle treated fmr1 KO and wild-type animals in a fear-conditioning task in which we measured freezing behavior in response to context. […] Before the test, we observed the mice for their reactions to a 1-sec foot shock at 0.2 mA, and we noted vocalizations, jumping behavior, and excessive running in both genotypes as evidence that they had detected the stimulus.

C[C@@]1(C(=O)N[C@@H](CCC(=O)O)C(=O)O)CCCN1C(=O)CN [Example G-2-MePE, Glycyl-L-2-methylprolyl-L-glutamic acid] (HELM PEPTIDE1{G.[C[C@@]1(C(=O)[*:2])CCCN1[*:1]].E}$$$$V2.0)
number of PCNA positive cells in SVZ ([1]; 9 month old rats, 1.2 mg/kg i.p., p<0.005): significant increase
number of PCNA positive cells in SVZ ([1]; 18 month old rats, single i.p. 12 mg/kg, vs vehicle p<0.05): significant increase
time at which 50% of the animals survived (MeCP2 deficient mice; 20 mg/kg/day i.p. from 4 weeks, saline about 11 weeks): about 15 weeks
time to 50 percent death, re-examination with control group re-run (MeCP2 deficient mice; 20 mg/kg/day i.p., controls 13.5 weeks): 16 weeks
time to 50 percent death, data initially presented (MeCP2 deficient mice; 20 mg/kg/day i.p., untreated 11 weeks): 16 weeks
safety in mecp2 mice (MeCP2 deficient mice; mouse, in vivo): No safety concerns
dendritic length by distance from the soma ([2]; 20 mg/kg i.p. 1/day from week 4, vs saline): produced longer dendrites
dendritic arborization and dendritic spine length ([2]; 20 mg/kg i.p. once daily, 9 week old mice): improved dendritic arborization and increased dendritic spine length
freezing behavior, contextual fear conditioning (fmr1 knockout mice): normalizes the deficit
